Biological target: T1, CCR1 (Homo sapiens, UniProt P32246)
T1 construct: host or cells: THP-1 cells or monocytes isolated from human buffy coats
T1 sequence (P32246 1-355): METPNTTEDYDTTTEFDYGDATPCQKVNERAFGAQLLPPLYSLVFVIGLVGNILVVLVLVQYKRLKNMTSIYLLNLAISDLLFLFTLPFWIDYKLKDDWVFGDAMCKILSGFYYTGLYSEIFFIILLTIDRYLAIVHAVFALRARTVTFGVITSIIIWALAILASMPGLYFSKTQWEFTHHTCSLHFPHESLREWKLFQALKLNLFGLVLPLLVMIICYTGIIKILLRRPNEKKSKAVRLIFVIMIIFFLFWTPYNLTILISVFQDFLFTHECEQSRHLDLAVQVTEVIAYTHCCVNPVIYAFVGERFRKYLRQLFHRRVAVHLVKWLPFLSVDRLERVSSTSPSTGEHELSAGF
Assay: CCR1 chemotaxis assay or binding assay (activity given for either)
Details: either the chemotaxis assay or binding assay; CCR1 expressing cells (THP-1 or human monocytes); read-out: Activity (IC50 class)
Description: Cells were grown under 5% CO2/95% air, 100% humidity at 37° C. and subcultured twice weekly at 1:5 (cells were cultured at a density range of 2×10^5 to 2×10^6 cells/mL) and harvested at 1×10^6 cells/mL. THP-1 cells express CCR1 and can be used in CCR1 binding and functional assays.
Monocytes were isolated from human buffy coats using the Miltenyi bead isolation system (Miltenyi, Auburn, Calif.). Briefly, following a Ficoll gradient separation to isolate peripheral blood mononuclear cells, cells were washed with PBS and the red blood cells lysed using standard procedures. Remaining cells were labeled with anti-CD14 antibodies coupled to magnetic beads (Miltenyi Biotech, Auburn, Calif.). Labeled cells were passed through AutoMACS (Miltenyi, Auburn, Calif.) and positive fraction collected. Monocytes express CCR1 and can be used in CCR1 binding and functional assays.
CCR1 expressing cells were centrifuged and resuspended in assay buffer (20 Mm HEPES pH 7.1, 140 Mm NaCl, 1 Mm CaCl2, 5 Mm MgCl2, and with 0.2% bovine serum albumin) to a concentration of 5×10^6 cells/mL for THP-1 cells and 5×10^5 for monocytes. Binding assays were set up as follows. […] Reactions were aspirated onto GF/B glass filters pre-soaked in 0.3% polyethyleneimine (PEI) solution, on a vacuum cell harvester (Packard Instruments; Meriden, Conn.). Scintillation fluid (40 μl; Microscint 20, Packard Instruments) was added to each well, the plates were sealed and radioactivity measured in a Topcount scintillation counter (Packard Instruments). Control wells containing either diluent only (for total counts) or excess MIP-1α or MIP-1β (1 μg/mL, for non-specific binding) were used to calculate the percent of total inhibition for compound. The computer program Prism from GraphPad, Inc. (San Diego, Calif.) was used to calculate IC50 values.
Chemotaxis assays were performed using 5 ┌ m pore polycarbonate, polyvinylpyrrolidone-coated filters in 96-well chemotaxis chambers (Neuroprobe; Gaithersburg, Md.) using chemotaxis buffer (Hank's balanced salt solution (HBSS) and 1% FBS). CCR1 chemokine ligands (i.e., MIP-1α, CCL15/Leukotactin; R&D Systems; Minneapolis, Minn.) are use to evaluate compound mediated inhibition of CCR1 Mediated migration. Other chemokines (i.e., SDF-1α; R&D Systems; Minneapolis, Minn.) are used as specificity controls. […] The chambers were incubated 1-2 hours at 37° C., and the number of cells in the lower chamber quantified either by direct cell counts in five high powered fields per well or by the CyQuant assay (Molecular Probes), a fluorescent dye method that measures nucleic acid content and microscopic observation.
THP-1 cells and monocytes lack other chemokine receptors that bind the same set of chemokine ligands as CCR1 (i.e., MIP-1α, MPIF-1, Leukotactin, etc.). Equal numbers of cells were added to each well in the plate. The cells were then incubated with radiolabeled MIP-1α. Unbound ligand was removed by washing the cells, and bound ligand was determined by quantifying radioactive counts. […] Percent inhibition was determined by the equation: […]
In the assay, the amount of compound was varied; while cell number and ligand concentration were held constant.
One of the primary functions of chemokines is their ability to mediate the migration of chemokine receptor-expressing cells, such as white blood cells. […] THP-1 Myelomonocytic leukemia cells, which resemble monocytes, as wells as freshly isolated monocytes, were used as targets for chemoattraction by CCR1 chemokine ligands (i.e., MIP-1α, CCL15/leukotactin). […] In this assay, the amount of compound was varied; while cell number and chemokine agonist concentrations were held constant. After the chemotaxis chambers were incubated 1-2 hours at 37° C., the responding cells in the lower chamber were quantified by labeling with the CyQuant assay (Molecular Probes), a fluorescent dye method that measures nucleic acid content, and by measuring with a Spectrafluor Plus (Tecan).

Row | Structure (SMILES) | IC50
1 | COc1cc(N2CCN(C(=O)Cn3ncc4cc[n+]([O-])cc43)CC2)ccc1Cl [Compound 1.035] | < 1000 nM
2 | COc1cc(N2CCN(C(=O)Cn3cc4c(Cl)nccc4n3)CC2)ccc1Cl [Compound 1.036] | < 1000 nM
3 | COc1cc(N2CCN(C(=O)Cn3cc4c(I)ccnc4n3)CC2)ccc1Cl [Compound 1.037] | < 1000 nM
4 | COc1cc(N2CCN(C(=O)Cn3ncc4c(I)ccnc43)CC2)ccc1Cl [Compound 1.038] | < 1000 nM
5 | COc1cc(N2CCN(C(=O)Cn3ncc4c(S(C)(=O)=O)ccnc43)CC2)ccc1Cl [Compound 1.039] | < 1000 nM
6 | COc1cc(N2CCN(C(=O)Cn3nc(CN=[N+]=[N-])c4cccnc43)CC2)ccc1Cl [Compound 1.040] | < 1000 nM
7 | COc1cc(N2CCN(C(=O)Cn3nc(CS(=O)(=O)O)c4cccnc43)CC2)ccc1Cl [Compound 1.041] | 1000 to 2500 nM
8 | COc1cc(N2CCN(C(=O)Cn3ncc4cc(Cl)cnc43)CC2)ccc1Cl [Compound 1.042] | < 1000 nM
9 | COc1cc(N2CCN(C(=O)Cn3ncc4c(Cl)ncnc43)CC2)ccc1Cl [Compound 1.044] | < 1000 nM
10 | COc1cc(N2CCN(C(=O)Cn3ncc4c(OC)ncnc43)CC2)ccc1Cl [Compound 1.045] | < 1000 nM
11 | COc1cc(N2CCN(C(=O)Cn3cc4ccc(Cl)nc4n3)CC2)ccc1Cl [Compound 1.046] | < 1000 nM
12 | COc1cc(N2CCN(C(=O)Cn3ncc4ccc(Cl)nc43)CC2)ccc1Cl [Compound 1.047] | < 1000 nM
13 | COc1cc(N2CCN(C(=O)Cn3ncc4ccc(N=[N+]=[N-])nc43)CC2)ccc1Cl [Compound 1.048] | < 1000 nM
14 | COc1cc(N2CCN(C(=O)Cn3ncc4ccc(N)nc43)CC2)ccc1Cl [Compound 1.049] | < 1000 nM
15 | COc1cc(N2CCN(C(=O)Cn3ncc4ccnc(N=[N+]=[N-])c43)CC2)ccc1Cl [Compound 1.050] | < 1000 nM
16 | COc1cc(N2CCN(C(=O)Cn3ncc4ccnc(N)c43)CC2)ccc1Cl [Compound 1.051] | < 1000 nM
17 | COc1cc(N2CCN(C(=O)Cn3nc4ncccc4c3-c3ncco3)CC2)ccc1Cl [Compound 1.052] | < 1000 nM
18 | COc1cc(N2CCN(C(=O)Cn3nc(C)c4cc(N)cnc43)CC2)ccc1Cl [Compound 1.053] | < 1000 nM
19 | COc1cc(N2CCN(C(=O)Cn3nc(C)c4cc([N+](=O)[O-])cnc43)CC2)ccc1Cl [Compound 1.054] | < 1000 nM
20 | COc1cc(N2CCN(C(=O)Cn3nc(N)c4ccc(C)nc43)CC2)ccc1Cl [Compound 1.055] | < 1000 nM
21 | COc1cc(N2CCN(C(=O)Cn3nc(-c4ncon4)c4cccnc43)[C@@H](C)C2)c(F)cc1Cl [Compound 1.056] | < 1000 nM
22 | COc1cc(N2CCN(C(=O)Cn3nc(C(=N)NO)c4cccnc43)CC2)ccc1Cl [Compound 1.057] | < 1000 nM
23 | COc1cc(N2CCN(C(=O)Cn3nc(-c4ncon4)c4cccnc43)CC2)ccc1Cl [Compound 1.058] | < 1000 nM

Row | Structure (SMILES) | IC50
24 | COc1cc(N2CCN(C(=O)Cn3nc(-c4noc(C)n4)c4cccnc43)CC2)ccc1Cl [Compound 1.059] | < 1000 nM
25 | COc1cc(N2CCN(C(=O)Cn3ncc4ccc(NC(C)=O)nc43)CC2)ccc1Cl [Compound 1.060] | < 1000 nM
26 | COc1cc(N2CCN(C(=O)Cn3nc(S(C)(=O)=O)c4cccnc43)CC2)ccc1Cl [Compound 1.061] | < 1000 nM
27 | COc1cc(N2CCN(C(=O)Cn3nc(CN)c4cccnc43)CC2)ccc1Cl [Compound 1.062] | 1000 to 2500 nM
28 | COc1cc(N2CCN(C(=O)Cn3nc(I)c4cccnc43)CC2)ccc1Cl [Compound 1.063] | < 1000 nM
29 | COc1cc(N2CCN(C(=O)Cn3nc(I)c4cccnc43)[C@@H](C)C2)c(F)cc1Cl [Compound 1.064] | < 1000 nM
30 | CCOc1cc(N2CCN(C(=O)Cn3nc(-c4ncc[nH]4)c4cccnc43)CC2)c(F)cc1Cl [Compound 1.065] | < 1000 nM
31 | O=C(Cn1nc(-c2ncc[nH]2)c2cccnc21)N1CCN(c2cc(OCCF)c(Cl)cc2F)CC1 [Compound 1.066] | < 1000 nM
32 | CCOc1cc(N2CCN(C(=O)Cn3nc(-c4ncc[nH]4)c4cccnc43)CC2)ccc1Cl [Compound 1.067] | < 1000 nM
33 | COc1cc(N2CCN(C(=O)Cn3nc(-c4ncc[nH]4)c4cccnc43)CC2)c(F)cc1Cl [Compound 1.068] | < 1000 nM
34 | COc1cc(N2CCN(C(=O)Cn3nc(-c4ncc[nH]4)c4cccnc43)[C@@H](C)C2)ccc1Cl [Compound 1.069] | < 1000 nM
35 | COc1cc(N2CCN(C(=O)Cn3nc(-c4ncc[nH]4)c4cccnc43)[C@@H](C)C2)c(F)cc1Cl [Compound 1.070] | < 1000 nM
36 | COc1cc(N2CCN(C(=O)Cn3nc(-c4ncc[nH]4)c4cccnc43)C[C@H]2C)ccc1Cl [Compound 1.071] | < 1000 nM
37 | COc1cc(N2CCN(C(=O)Cn3nc(-c4ncc[nH]4)c4cccnc43)C[C@@H]2C)ccc1Cl [Compound 1.072] | < 1000 nM
38 | COc1cc(N2CCN(C(=O)Cn3nc(-c4ncc[nH]4)c4cccnc43)[C@H](C)C2)ccc1Cl [Compound 1.073] | < 1000 nM
39 | CCOc1cc(N2CCN(C(=O)Cn3nc(-c4ncc[nH]4)c4cccnc43)[C@@H](C)C2)ccc1Cl [Compound 1.074] | < 1000 nM
40 | O=C(Cn1nc(-c2ncc[nH]2)c2cccnc21)N1CCN(c2ccc(Cl)c(OCCF)c2)CC1 [Compound 1.075] | < 1000 nM
41 | C[C@H]1CN(c2ccc(Cl)c(OCCF)c2)CCN1C(=O)Cn1nc(-c2ncc[nH]2)c2cccnc21 [Compound 1.076] | < 1000 nM
42 | Cc1cc(N2CCN(C(=O)Cn3nc(-c4ncc[nH]4)c4cccnc43)CC2)ccc1Cl [Compound 1.077] | < 1000 nM
43 | O=C(Cn1nc(-c2ncc[nH]2)c2cccnc21)N1CCN(c2ccc(Cl)c(C(F)(F)F)c2)CC1 [Compound 1.078] | 2500 to 12500 nM
44 | O=C(Cn1nc(-c2ncc[nH]2)c2cccnc21)N1CCN(c2ccc(Cl)c(OC(F)(F)F)c2)CC1 [Compound 1.079] | < 1000 nM
45 | COc1cc(N2CCN(C(=O)Cn3nc(-c4ncc[nH]4)c4cccnc43)CC2)ccc1Cl [Compound 1.080] | < 1000 nM
46 | COc1cc(N2CCN(C(=O)Cn3nc(-c4nccn4C)c4cccnc43)CC2)ccc1Cl [Compound 1.081] | < 1000 nM

Source: patent US7777035B2, “Azaindazole compounds and methods of use” (Chemocentryx, Inc., priority 2005, dated 2010)
